According to patent US20190231771A1, “METHODS FOR TREATMENT AND PREVENTION OF OPIOID INDUCED CONSTIPATION USING ORAL COMPOSITIONS OF METHYLNALTREXONE” (Salix Pharmaceuticals, Ltd., priority 2011, published 2019):

Experiments:
Assay type in all cases: in vivo, human
[1] = Study B: single and multiple dose pharmacokinetics after 20-minute intravenous infusion of 24 mg methylnaltrexone; conditions: 24 mg IV infusion; for t1/2 / AUC0-6: day not given; for AUC0-6: mean; for Metabolite ÷ MNTX Ratio / R (IV), accumulation factor: AUCinf used
Experimental: (§1) Presented herein is a clinical pharmacokinetics study, Study C, as well as Studies A and B. Study A investigated the single and multiple dose pharmacokinetics of methylnaltrexone (MNTX) and its metabolites (M2: methylnaltrexone sulfate; M4: 6α-methylnaltrexol; and M5: 6β-methylnaltrexol) following the subcutaneous administration of 12 mg methylnaltrexone. In Study B, the single and multiple dose pharmacokinetics of methylnaltrexone (MNTX) and its metabolites (M2, M4, and M5) were examined following a 20-minute short intravenous infusion of 24 mg of methylnaltrexone (MNTX).
(§2) Pharmacokinetic parameters included Cmax, AUCt, AUCinf, tmax, t1/2, % Re24, accumulation factor (R) as defined below and metabolite/parent drug ratio.
(§3) R=Accumulation Factor(based on AUC0-24(ng·h/mL):Day 7 AUC AUC0-24/Day 1 AUC0-24
(§4) Metabolite-Parent Drug ratio(based on ng·h/mL)(%)=100*(Metabolite AUC24/MNTX AUC24)
(§5) Note: AUCinf was used in place of AUC AUC0-24 for R and Metabolite-Parent Drug ratio computations following IV administration.

[2] = Study A: single and multiple dose pharmacokinetics after subcutaneous 12 mg methylnaltrexone; conditions: 12 mg SC Injection; for t1/2: day not given, harmonic mean; for R (SC), accumulation factor: AUC0-24 on Day 7/AUC0-24 on Day 1
Experimental: as §1, §2, §3, §4, §5

[3] = Study C: single and multiple dose pharmacokinetics of MNTX and metabolites, MNTX 450 mg PO x 7 days; conditions: for t1/2 / AUC0-24 / AUCinf / Cmax / Tmax / Metabolite/MNTX Ratio / R (PO), accumulation factor: 450 mg Tablets oral; for Metabolite/MNTX Ratio: 100*(Metabolite AUC24/MNTX AUC24); for R (PO), accumulation factor: AUC0-24 on Day 7/AUC0-24 on Day 1; for metabolite to MNTX ratios following oral administration: day and AUC basis not stated
Experimental: as §1
In addition, the urinary elimination of MNTX was characterized.
as §2, §3, §4, §5

| Compound | AUCinf ([1]; Day 1, mean) | Cmax ([1]; Day 1, mean) | AUCinf ([1]; Day 7, mean) | Cmax ([1]; Day 7, mean) | t1/2 [1] | AUC0-6 [1] | Metabolite ÷ MNTX Ratio [1] | R (IV), accumulation factor [1] | Metabolite/MNTX Ratio ([2]; Day 1) | AUC0-24 ([2]; Day 1, mean) | AUCinf ([2]; Day 1, mean) | Cmax ([2]; Day 1, mean) | Tmax ([2]; Day 1, median) | Metabolite/MNTX Ratio ([2]; Day 7) | AUC0-24 ([2]; Day 7, mean) | AUCinf ([2]; Day 7, mean) | Cmax ([2]; Day 7, mean) | Tmax ([2]; Day 7, median) | t1/2 [2] | R (SC), accumulation factor [2] | other results |
| --- | --- | --- | --- | --- | --- | --- | --- | --- | --- | --- | --- | --- | --- | --- | --- | --- | --- | --- | --- | --- | --- |
| C[N@+]1(CC2CC2)CC[C@]23c4c5ccc(O)c4O[C@H]2[C@H](O)CC[C@@]3(O)[C@H]1C5 [M5, 6β-methylnaltrexol] | 35.10 ng·h/mL | 3.44 ng/mL | 30.0 ng·h/mL | 8.71 ng/mL | 12.3 h | 12.3 ng·h/mL | 8.69% | 2.91 | 6.58% | 14.41 ng·h/mL | 18.5 ng·h/mL | 1.17 ng/mL | 2.0 h | 8.72% | 19.51 ng·h/mL | 19.5 ng·h/mL | 1.42 ng/mL | 2.0 h | 8.13 h | 1.42 | t1/2 ([3]; Day 1, harmonic mean): 18.40 h; AUC0-24 ([3]; Day 1, mean): 40.84 ng·h/mL; AUCinf ([3]; Day 1, mean): 73.61 ng·h/mL; Cmax ([3]; Day 1, mean): 3.48 ng/mL; Tmax ([3]; Day 1, median): 3.13 h; Metabolite/MNTX Ratio ([3]; Day 1): 15.10%; t1/2 ([3]; Day 7, harmonic mean): 28.65 h; AUC0-24 ([3]; Day 7, mean): 66.33 ng·h/mL; AUCinf ([3]; Day 7, mean): 120.87 ng·h/mL; Cmax ([3]; Day 7, mean): 4.89 ng/mL; Tmax ([3]; Day 7, median): 2.69 h; Metabolite/MNTX Ratio ([3]; Day 7): 21.41%; R (PO), accumulation factor [3]: 1.76; metabolite to MNTX ratios following oral administration [3]: 29.78% |
| methylnaltrexone sulfate [M2] | 162 ng·h/mL | 16.6 ng/mL | 176 ng·h/mL | 37.70 ng/mL | 5.70 h | 72.3 ng·h/mL | 46.60% | 2.61 | 28.71% | 61.34 ng·h/mL | 71.9 ng·h/mL | 6.34 ng/mL | 4.00 h | 29.30% | 66.3 ng·h/mL | 66.3 ng·h/mL | 5.70 ng/mL | 4.00 h | 5.57 h | 1.13 | t1/2 ([3]; Day 1, harmonic mean): 7.19 h; AUC0-24 ([3]; Day 1, mean): 188.63 ng·h/mL; AUCinf ([3]; Day 1, mean): 216.89 ng·h/mL; Cmax ([3]; Day 1, mean): 17.15 ng/mL; Tmax ([3]; Day 1, median): 4.02 h; Metabolite/MNTX Ratio ([3]; Day 1): 72.69%; t1/2 ([3]; Day 7, harmonic mean): 13.87 h; AUC0-24 ([3]; Day 7, mean): 243.72 ng·h/mL; AUCinf ([3]; Day 7, mean): 320.51 ng·h/mL; Cmax ([3]; Day 7, mean): 21.00 ng/mL; Tmax ([3]; Day 7, median): 4.02 h; Metabolite/MNTX Ratio ([3]; Day 7): 79.11%; R (PO), accumulation factor [3]: 1.30; metabolite to MNTX ratios following oral administration [3]: 81.0% |
| C[N@+]1(CC2CC2)CC[C@]23c4c5ccc(O)c4O[C@H]2[C@@H](O)CC[C@@]3(O)[C@H]1C5 [M4, 6α-methylnaltrexol] | 61.30 ng·h/mL | 11.0 ng/mL | 54.0 ng·h/mL | 18.10 ng/mL | 12.28 h | 28.8 ng·h/mL | 14.90% | 2.08 | 15.81% | 34.66 ng·h/mL | 38.3 ng·h/mL | 4.64 ng/mL | 1.0 h | 18.75% | 41.86 ng·h/mL | 41.9 ng·h/mL | 4.33 ng/mL | 1.0 h | 7.59 h | 1.25 | t1/2 ([3]; Day 1, harmonic mean): 17.48 h; AUC0-24 ([3]; Day 1, mean): 79.73 ng·h/mL; AUCinf ([3]; Day 1, mean): 124.23 ng·h/mL; Cmax ([3]; Day 1, mean): 9.01 ng/mL; Tmax ([3]; Day 1, median): 2.0003 h; Metabolite/MNTX Ratio ([3]; Day 1): 29.70%; t1/2 ([3]; Day 7, harmonic mean): 31.85 h; AUC0-24 ([3]; Day 7, mean): 119.61 ng·h/mL; AUCinf ([3]; Day 7, mean): 221.13 ng·h/mL; Cmax ([3]; Day 7, mean): 10.77 ng/mL; Tmax ([3]; Day 7, median): 2.0007 h; Metabolite/MNTX Ratio ([3]; Day 7): 38.50%; R (PO), accumulation factor [3]: 1.62; metabolite to MNTX ratios following oral administration [3]: 54.21% |
